According to publication PMC6835155, “Lessons from LIMK1 enzymology and their impact on inhibitor design” (Biochemical Journal, 2019):

What was measured:
[1] = molecular target: T1, LIMK2KD (Homo sapiens, UniProt P53671); assay: Differential (dynamic) scanning fluorimetry (DSF) assay, LIMK2KD; assay type: binding; settings: LIMK2KD, compound 10 µM, single shot; for ΔTm at 10 µM: read-out: TM Shift LIMK2 (K)
T1 construct: The cDNA coding for LIMK2 residues 330 to 632 was PCR amplified; His6 (N, cleaved yes); made in house; host or cells: baculovirus; Sf9 for virus, TriEx insect cells for expression

[2] = molecular target: T2, LIMK1KD (Homo sapiens, UniProt P53667); assay: Differential (dynamic) scanning fluorimetry (DSF) assay, LIMK1KD; assay type: binding; settings: 2 µM LIMK1KD, compound 10 µM, single shot; for ΔTm at 10 µM: read-out: TM Shift LIMK1 (K)
T2 construct: His6 (N, cleaved yes); made in house; host or cells: baculovirus; Sf9 for virus, TriEx insect cells for expression
T2 sequence (P53667 330-637): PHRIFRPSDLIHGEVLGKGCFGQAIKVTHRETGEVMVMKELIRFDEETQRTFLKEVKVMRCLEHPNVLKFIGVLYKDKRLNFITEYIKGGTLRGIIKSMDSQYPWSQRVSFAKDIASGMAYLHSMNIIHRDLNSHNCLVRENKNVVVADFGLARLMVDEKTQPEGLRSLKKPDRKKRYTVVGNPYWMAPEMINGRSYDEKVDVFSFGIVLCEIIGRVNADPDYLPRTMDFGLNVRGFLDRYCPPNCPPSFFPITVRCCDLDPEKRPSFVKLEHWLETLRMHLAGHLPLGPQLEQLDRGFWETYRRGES

T1 sequence (P53671 330-632): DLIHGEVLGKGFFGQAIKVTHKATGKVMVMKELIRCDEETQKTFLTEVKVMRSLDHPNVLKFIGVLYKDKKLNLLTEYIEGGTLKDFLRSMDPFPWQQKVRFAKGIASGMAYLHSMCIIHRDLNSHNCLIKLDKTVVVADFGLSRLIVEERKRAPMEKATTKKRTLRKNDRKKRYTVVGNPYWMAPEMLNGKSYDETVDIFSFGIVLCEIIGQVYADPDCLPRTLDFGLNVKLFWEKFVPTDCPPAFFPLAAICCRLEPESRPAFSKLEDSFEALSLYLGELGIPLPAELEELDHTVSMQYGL

| Compound | ΔTm at 10 µM [1] [°C] | ΔTm at 10 µM [2] [°C] | TM Shift LIMK2 (K) [1] [K] | TM Shift LIMK1 (K) [2] [K] | TM Shift LIMK2 (K) ([1]; 10 µM) |
| --- | --- | --- | --- | --- | --- |
| O=c1cc(N2CCOCC2)oc2c(-c3ccccc3)cccc12 [LY294002] | 0.4 | 0 |  |  |  |
| O=C(O)c1ccc(-c2c[nH]c3ncc(-c4ccccc4)cc23)cc1C1CCCC1 [GSK650394] | -0.2 | 1.4 |  |  |  |
| CCC[C@H](NC(=O)/C(C#N)=C/c1cccc(Br)n1)c1ccccc1 [Degrasyn (WP1130), Degrasyn] |  |  | 0.7 | -1.0 |  |
| Cc1nc(N)sc1-c1ccnc(Nc2ccc(N3CCOCC3)cc2)n1 [CYC116] | 1.6 | 3.7 |  |  |  |
| CNC(=O)c1ccc(-c2cnc3ncc(Cc4ccc5ncccc5c4)n3n2)cc1F [INCB28060] | 0 | -0.2 |  |  |  |
| Cc1cc2c(F)c(Oc3ncnn4cc(OC[C@@H](C)OC(=O)[C@H](C)N)c(C)c34)ccc2[nH]1 [Brivanib Alaninate (BMS-582664), Brivanib Alaninate] | 0 | 0.7 |  |  |  |
| Cc1ccc(F)c(NC(=O)Nc2ccc(-c3cccc4[nH]nc(N)c34)cc2)c1 [Linifanib] | 5 | 2 |  |  |  |
| Oc1ccc(Nc2nc(-c3ccc(Cl)cc3)cs2)cc1 [SKI II] |  |  | 1.4 | -0.4 |  |
| Cc1cccc(-c2nn3c(c2-c2ccnc4ccc(C(N)=O)cc24)CCC3)n1 [Galunisertib] | -0.5 | 0.3 |  |  |  |
| CS(=O)(=O)N1CCN(Cc2cc3nc(-c4cccc5[nH]ncc45)nc(N4CCOCC4)c3s2)CC1 [Pictilisib] |  |  |  | 2.2 | 0.1 |
| Cc1cc2c(F)c(Oc3ncnn4cc(OC[C@@H](C)O)c(C)c34)ccc2[nH]1 [Brivanib (BMS-540215), Brivanib] | 0.3 | 0.8 |  |  |  |
| CN1CC[C@H](c2c(O)cc(O)c3c(=O)cc(-c4ccccc4Cl)oc23)[C@H](O)C1 [Alvocidib] | 0.5 | 1.9 |  |  |  |
| Cc1ccc(-c2nn(C(C)(C)C)c3ncnc(N)c23)cc1 [PP1] |  |  | 0.0 | 2.0 |  |
| CCN(CC)CCCCNc1ncc2cc(-c3cc(OC)cc(OC)c3)c(NC(=O)NC(C)(C)C)nc2n1 [PD173074] | 1.2 | 1.1 |  |  |  |
| CC(C)CCN1c2nc(Nc3cc(F)c(O)c(F)c3)ncc2N(C)C(=O)C1C (centres unmarked) [BI-D1870] |  |  | 3.9 | 2.2 |  |
| Cc1cc(C)nc(NS(=O)(=O)c2ccc(NC(=S)NC(=O)COc3ccc(Br)cc3Cl)cc2)n1 [ZCL278] |  |  | 1.2 | -1.0 |  |
| N#CC(C#N)=Cc1ccc(O)c(O)c1 [AG-18] |  |  | 0.6 | 0.1 |  |
| Cc1cc(Nc2nc(N[C@@H](C)c3ncc(F)cn3)ncc2Cl)n[nH]1 [AZD1480] | 0.6 | 4.7 |  |  |  |
| C=CC(=O)Nc1ccc2ncnc(Nc3cccc(Br)c3)c2c1 [PD168393] |  |  | 2.0 | 0.4 |  |
| CN(c1ccccc1CNc1nc(Nc2ccc3c(c2)CC(=O)N3)ncc1C(F)(F)F)S(C)(=O)=O [PF 431396] |  |  | 0.2 | 2.9 |  |
| CCn1cc(-c2ccnc3[nH]c(-c4cccc(CN(C)C)c4)cc23)c(-c2ccc(NC(=O)N(C)C)cc2)n1 [GSK1070916] | -0.1 | 1.3 |  |  |  |
| CS(=O)(=O)CCNCc1ccc(-c2ccc3ncnc(Nc4ccc(OCc5cccc(F)c5)c(Cl)c4)c3c2)o1 [Lapatinib (GW-572016) Ditosylate, Lapatinib] | 1.8 | 0.2 |  |  |  |
| Cn1cc(-c2ccc3nnc(C(F)(F)c4ccc5ncccc5c4)n3n2)cn1 [JNJ-38877605] |  |  | -0.2 | -0.1 |  |
| CC(C)(C)NS(=O)(=O)c1cncc(-c2cc(F)c3nc(N)nn3c2)c1 [CZC24832] | -0.1 | -0.4 |  |  |  |
| CCn1c(-c2nonc2N)nc2c(C#CC(C)(C)O)ncc(OC[C@H]3CCCNC3)c21 [GSK690693] | 0 | -0.1 |  |  |  |
